“Also recorded” adds a separate entry of the source.
Key:
HL 60 cells = assay: Cytotoxicity, colorimetric test (ALLEY et al.), HL 60; format: cell-based, human; details: for IC50: Homo sapiens, HL-60, concentration inhibiting 50% of cell growth, 9 concentrations
Experimental: (§1) The cytotoxicity of the compounds is assessed using the calorimetric test described by ALLEY et al. (Cancer Res., (1988) 48, 589-601). This automated test is routinely used on 2 cell lines: L 1210 (mouse leukemia) and HL 60 (human promyelocyte). On each of these lines, the cytotoxicity is assessed using 9 concentrations of the compounds. The IC50 is the concentration inhibiting 50% of cell growth.

L 1210 cells = assay: Cytotoxicity, colorimetric test (ALLEY et al.), L 1210; format: cell-based, mouse; details: for IC50: Mus musculus, L1210, concentration inhibiting 50% of cell growth, 9 concentrations
Experimental: as §1

[1] = target: T1, N-myristoyltransferase (NMT) (Mus musculus, UniProt O70310); assay: Inhibition of N-myristoyltransferase (NMT) solubilized from L 1210 microsomes, in competition with peptide substrate G8R; format: biochemical, murine (L 1210); details: for IC50: NMT from L 1210 microsomes, peptide substrate G8R, 10 min at 37° C.
T1 construct: The supernatant comprises the whole of the NMT activity present in the L 1210 microsomes; endogenous in cells; host or cells: L 1210 murine leukemia cells; Triton 770-solubilized microsomes (105,000 g supernatant)
T1 sequence (O70310 1-496): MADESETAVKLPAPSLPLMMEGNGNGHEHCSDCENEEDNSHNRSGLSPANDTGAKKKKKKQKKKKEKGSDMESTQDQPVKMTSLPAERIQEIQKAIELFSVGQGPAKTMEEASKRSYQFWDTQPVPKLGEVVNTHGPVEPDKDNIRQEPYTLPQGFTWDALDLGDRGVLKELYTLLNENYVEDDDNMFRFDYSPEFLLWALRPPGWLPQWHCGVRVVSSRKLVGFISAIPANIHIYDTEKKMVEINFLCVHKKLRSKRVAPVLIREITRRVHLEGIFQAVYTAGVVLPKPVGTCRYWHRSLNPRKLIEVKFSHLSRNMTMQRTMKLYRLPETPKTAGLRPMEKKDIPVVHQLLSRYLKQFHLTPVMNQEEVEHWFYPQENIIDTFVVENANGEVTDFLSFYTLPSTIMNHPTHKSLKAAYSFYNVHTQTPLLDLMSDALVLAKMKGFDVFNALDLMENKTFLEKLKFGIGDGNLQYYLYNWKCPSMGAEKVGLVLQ
Experimental: Leukemic cells of murine origin (L 1210) are cultured in 500- to 1000-ml roller bottles in a medium comprising: RPMI 1640 medium (Gibco); 10% fetal calf serum; 50 units/ml of penicillin; 50 μM streptomycin; 2 mM glutamine; and 10 mM HEPES (Gibco). The cells grow with continuous agitation at 37° C. in an atmosphere of 5% CO2 /95% air. The cells are collected and washed. The final pellet, typically containing 2.5×10^11 cells is resuspended in a lysis buffer [50 mM Tris, pH 7.9; 1 mM DTT; 1 mM EDTA; and 250 mM sucrose]. The cells are lysed and homogenized. The microsomes (vesiculated endoplasmic reticulum) are collected by centrifugation at 105,000 g as a pellet.
NMT is a membrane enzyme. To solubilize this enzyme, this suspension is then diluted to 2/3 in a solubilization buffer [50 mM HEPES, pH 7.5, 1 mM EDTA, 1 mM DTT, 10% glycerol and 3% Triton 770] and maintained for 30 min at 4° C. with stirring. This suspension is then centrifuged again at 105,000 g for 75 min. The material insoluble in the detergent sediments as a pellet. The supernatant comprises the whole of the NMT activity present in the L 1210 microsomes.
The compounds are then tested on the supernatant in competition with the peptide substrate Gly-Asn-(Ala)4 -(Arg)2 ("G8R") according to the conditions which follow, as described by TOWLER et al. (PNAS, (1987), 84, 2708-2711). Myristoylcoenzyme A is synthesized enzymatically immediately before use by incubation of myristate with ATP, Coenzyme A (lithium salt) and Pseudomonas Acyl-Coa synthetase (20 min at 30° C.). The peptide substrate and the biological source as obtained above are then added. The mixture is incubated for 10 min at 37° C.; the reaction is then stopped with 110 μl of methanol and 10 μl of trichloroacetic acid. The medium is left at 4° C. for 10 min and then centrifuged at 10,000 g for 5 min. An aliquot (30 μl) of the final supernatant is injected into an HPLC system equipped with a μBondapak column (Waters) and developed with a linear gradient as described by Towler et al. (PNAS, (1987), 84, 2708-11). Detection of the acylated peptide is performed using a radioactive line detector (Berthold) by means of the addition of 5 ml/min of scintillation fluid (Zinsser). The acylated peptide is eluted at 85% acetonitrile-TFA/15% H20-TFA.
The compounds tested as inhibitors are suspended in a 0.1% solution of Triton 770 after a brief sonication in the cold state. 10 μl of the solution of inhibitor are added to the reaction medium. The experimental conditions are identical to those described above. The activity of the compound is evaluated on the basis of the decrease in control activity, incubated under the same conditions but in the presence of the solution of suspension.

[2] = compared with N-myristoylglycine

| IC50 [1] [µM] | activity greater than that measured for N-myristoylglycine ([1]; ratio of IC50 versus N-myristoylglycine) | SMILES | IC50 (HL 60 cells) [µM] | IC50 (L 1210 cells) [µM] | cytotoxicity on HL 60 cells (in words) (HL 60 cells; [2]) | cytotoxicity on L 1210 cells (in words) (L 1210 cells; [2]) | inhibition of NMT activity (in words) ([1]; enzyme extracted from L 1210 cells) |
| --- | --- | --- | --- | --- | --- | --- | --- |
| 3000 | – | CCCCCCCCCCCCCC(=O)NCC(=O)O [N-myristoylglycine, reference compound] | 20.5 | 48.4 | – | – | – |
| 200 | 15 -fold | CCCCCCCCCCCCCC(=O)N[C@@H](Cc1ccccc1)C(=O)O [N-myristoyl-(S)-phenylalanine] | 12.8 | 29.5 | markedly greater than that due to N-myristoylglycine; also recorded: markedly greater cytotoxicity than N-myristoylglycine | markedly greater than that due to N-myristoylglycine; also recorded: markedly greater cytotoxicity than N-myristoylglycine | strongly inhibits its activity; also recorded: markedly greater inhibition of the activity of this enzyme than the use of compounds described in the prior art |

Source: US5164414A, “Use of N-myristoyl-(S)-phenylalanine for the treatment of diseases involving myristoylation” (Adir Et Compagnie, priority 1990, dated 1992)
